# Values joined by “and” are separate entries in the source; they are usually repeats but may differ in a detail not shown here. Identical values can stand only once. Like-named read-outs stand apart in the source and are kept apart here.
# Key:
# [1] = biological target: T1, Q147A mutant degron (ANQS) fused to EGFP (Homo sapiens, UniProt Q96SW2+Q9UKT9, Q147A); assay: Ratiometric EGFP:mCherry flow cytometry degradation assay, 18 h; format: cell-based; settings: Jurkat, read-out: DMax Q147A/%
# T1 construct: pLVX-Sprout-IKZF3 130-189aa Q147A (ANQS); expressed in transfected cells
# [2] = tested on: library of 8380 IKZF3 degrons fused to EGFP in Jurkat cells; assay: Pooled mutant ZF degron library screen (FACS EGFPlow vs EGFP+, NGS), 18 h; format: cell-based, human;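 on logFC: Log2 fold change of EGFPlow over EGFP+ representation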
# [3] = biological target: T2, endogenous IKZF1 in Jurkat cells (Homo sapiens, UniProt Q13422+Q96SW2); assay: Endogenous IKZF1 immunostaining, fluorescent antibody flow cytometry assay; format: cell-based; settings: 18 h
# T2 construct: endogenous in cells; host or cells: Jurkat (untransduced for immunostaining; WEIS-EGFP-transduced for the blot)
# Description: As we sought to screen a large number of mutant ZF degrons with different mutation combinations, we pursued a library screen approach similar to that previously employed by Sievers et al. and Jan et al. , Only the most promising compounds from the original set of 36 were used for the library screen. To help narrow the candidates, a subset of compounds was tested for endogenous IKZF1 degradation in Jurkat cells using a fluorescent antibody flow cytometry assay (Figure S5). […] Thalidomide and lenalidomide were also included as controls.
# Endogenous IKZF1 Immunostaining
# 37 °C and 5% CO2. Following incubation, cells were stained with LIVE/DEAD™ Fixable Aqua Dead Cell Stain (Thermo) diluted 1000X in PBS for 30 min at room temperature and then incubated with Human TruStain FcX block (Biolegend) diluted 40X in PBS + 1% FBS (Gibco) for 10 min at room temperature. Intranuclear staining of IKZF1 was carried out using the Transcription Factor Buffer Set (BD Bioscience) according to the manufacturer's protocol and staining with IKZF1 AF488 antibody (clone R32-1149, BD Bioscience) diluted 40X for 30 minutes at room temperature. Cells were acquired on a Cytoflex S (Beckman Coulter) and data analysed using FlowJo 10.8.1 9 (BD).
# [4] = biological target: T3, endogenous IKZF3 in Jurkat cells (Homo sapiens, UniProt Q96SW2+Q9UKT9); assay: Western blot for endogenous IKZF3; format: cell-based
# T3 construct: endogenous in cells; host or cells: Jurkat (transduced with ZF-EGFP constructs, or untransduced)
# [5] = biological target: T4, ZF-EGFP fusion protein with the HEIP, AEVK, WEIS, or WT ZF degron (Homo sapiens, UniProt Q9UKT9); assay: Western blot for ZF-EGFP fusion protein; format: cell-based
# T4 construct: The degron spans residues 130–189 of IKZF3; expressed in transfected cells; host or cells: Jurkat, lentivirally transduced, presorted mCherry+
# Jurkat cells = assay: TMTpro quantitative proteomics, 16 h; settings: Jurkat whole cell extracts, TMTpro SPS-MS3
# MM.1S cells = assay: TMTpro quantitative proteomics, 16 h; settings: 1 μM
# Description: Quantitative proteomics screens were carried out in untransduced Jurkat cells, embryonic stem cells (ESCs), and the multiple myeloma cell line, MM.1S. We used Jurkat cells, as our work up to this point had employed this cell line, and we selected ESCs and MM.1S cells as they express known CRBN neosubstrates, including IKZF1, IKZF3, RAB28, RNF166, SALL4, ZFP91, and ZNF827.
# Proteomics - cell lysis and protein digestion
# The viability of Jurkat cells was tested after 16-h treatment with corresponding chemicals
# viable cells in each condition. Next, ~10^7 cells per condition were collected by centrifugation (1000 rpm), washed twice with ice-cold PBS, and lysed in RIPA buffer [50 mM HEPES pH 7.4, 150 mM NaCl, 1% sodium deoxycholate, 1% NP-40, 0.1% SDS, 10 mM sodium pyrophosphate, 10 mM β-glycerophosphate, 2.5 mM MgCl2, 200 µM TCEP, phosphatase and protease inhibitor cocktail (in-house)], to produce whole cell extracts. Whole-cell extracts were sonicated, and protein concentrations were determined using the Bradford assay. Protein extracts (100 µg) were subjected to disulfide bond reduction with 5 mM TCEP (10 min) and alkylation with 25 mM chloroacetamide (20 min). Methanol–chloroform precipitation was performed prior to protease digestion. […]
# [6] = WT degron, residues 146/147/149/150/152/153/154/155/167: FQNQGASFL
# [7] = degron residues 146/147/149/150/152/153/154/155/167: FADIGAAFL
# [8] = degron residues 146/147/149/150/152/153/154/155/167: FADIGACFL
# [9] = degron residues 146/147/149/150/152/153/154/155/167: FADIGADFL
# [10] = degron residues 146/147/149/150/152/153/154/155/167: FADIGAEFL
# [11] = degron residues 146/147/149/150/152/153/154/155/167: FREIGAPFL
# [12] = degron residues 146/147/149/150/152/153/154/155/167: FYEVGACFL
# [13] = protein AADAT isoform 2 (Q8N5Z0-2)
# T1 sequence (Q9UKT9 130-189 Q147A): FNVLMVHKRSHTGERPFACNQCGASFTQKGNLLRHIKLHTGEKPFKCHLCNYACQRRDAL
# T1 sequence (Q96SW2 whole entry, the tested form may be a part): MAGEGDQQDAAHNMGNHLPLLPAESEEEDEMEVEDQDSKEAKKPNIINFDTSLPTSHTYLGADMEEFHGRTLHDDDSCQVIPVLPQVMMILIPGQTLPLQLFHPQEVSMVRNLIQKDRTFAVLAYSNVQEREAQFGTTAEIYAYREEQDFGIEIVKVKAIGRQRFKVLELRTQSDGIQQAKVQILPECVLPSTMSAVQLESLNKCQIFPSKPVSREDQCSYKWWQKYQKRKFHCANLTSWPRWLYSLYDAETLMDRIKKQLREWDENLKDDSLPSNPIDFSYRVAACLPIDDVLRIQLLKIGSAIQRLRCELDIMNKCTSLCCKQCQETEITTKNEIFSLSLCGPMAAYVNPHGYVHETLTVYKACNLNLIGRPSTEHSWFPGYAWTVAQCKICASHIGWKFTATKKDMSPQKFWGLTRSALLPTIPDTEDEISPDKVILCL
# T1 sequence (Q16531 whole entry partner, the tested form may be a part): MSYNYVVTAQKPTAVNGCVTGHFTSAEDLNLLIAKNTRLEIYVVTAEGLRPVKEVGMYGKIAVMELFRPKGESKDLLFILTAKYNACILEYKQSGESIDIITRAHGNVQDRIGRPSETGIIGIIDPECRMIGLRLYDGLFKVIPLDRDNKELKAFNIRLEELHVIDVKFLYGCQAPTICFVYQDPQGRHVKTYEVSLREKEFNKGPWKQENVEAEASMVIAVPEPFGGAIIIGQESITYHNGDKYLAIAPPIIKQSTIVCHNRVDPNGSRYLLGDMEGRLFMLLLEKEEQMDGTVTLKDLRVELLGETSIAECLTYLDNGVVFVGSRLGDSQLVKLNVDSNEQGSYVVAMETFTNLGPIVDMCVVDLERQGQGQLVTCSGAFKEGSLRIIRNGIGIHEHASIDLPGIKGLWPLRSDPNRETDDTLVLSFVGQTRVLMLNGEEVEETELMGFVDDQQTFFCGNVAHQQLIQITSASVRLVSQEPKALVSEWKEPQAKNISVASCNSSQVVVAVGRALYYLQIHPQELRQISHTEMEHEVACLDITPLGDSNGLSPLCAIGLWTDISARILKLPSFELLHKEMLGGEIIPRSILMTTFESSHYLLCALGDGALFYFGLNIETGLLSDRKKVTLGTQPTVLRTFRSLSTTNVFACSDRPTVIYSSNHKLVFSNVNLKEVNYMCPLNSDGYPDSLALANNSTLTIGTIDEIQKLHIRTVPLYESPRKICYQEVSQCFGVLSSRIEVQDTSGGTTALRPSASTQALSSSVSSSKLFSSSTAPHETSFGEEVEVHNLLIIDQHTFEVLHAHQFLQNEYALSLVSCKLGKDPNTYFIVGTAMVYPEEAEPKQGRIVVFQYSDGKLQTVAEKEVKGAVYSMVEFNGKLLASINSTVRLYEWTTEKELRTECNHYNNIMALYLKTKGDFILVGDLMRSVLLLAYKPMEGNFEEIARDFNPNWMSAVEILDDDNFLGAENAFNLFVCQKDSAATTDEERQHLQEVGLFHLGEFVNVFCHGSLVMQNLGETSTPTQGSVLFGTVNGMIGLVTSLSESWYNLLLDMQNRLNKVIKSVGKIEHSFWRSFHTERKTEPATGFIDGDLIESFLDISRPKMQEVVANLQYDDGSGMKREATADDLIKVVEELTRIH
# T3 sequence (Q9UKT9 whole entry): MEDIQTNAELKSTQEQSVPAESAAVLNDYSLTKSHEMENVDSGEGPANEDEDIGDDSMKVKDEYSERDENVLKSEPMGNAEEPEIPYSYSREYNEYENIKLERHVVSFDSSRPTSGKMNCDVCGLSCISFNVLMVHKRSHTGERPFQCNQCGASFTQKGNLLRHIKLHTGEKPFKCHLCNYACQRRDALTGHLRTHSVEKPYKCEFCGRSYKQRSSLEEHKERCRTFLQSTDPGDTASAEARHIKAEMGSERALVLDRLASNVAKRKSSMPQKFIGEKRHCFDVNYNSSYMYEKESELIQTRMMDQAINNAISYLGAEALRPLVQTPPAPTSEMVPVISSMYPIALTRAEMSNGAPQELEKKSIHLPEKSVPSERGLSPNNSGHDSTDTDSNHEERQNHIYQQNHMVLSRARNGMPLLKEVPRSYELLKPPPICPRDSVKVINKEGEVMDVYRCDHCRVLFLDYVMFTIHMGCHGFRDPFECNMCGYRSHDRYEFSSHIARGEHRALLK
# T3 sequence (Q96SW2 whole entry): as the sequence (Q96SW2 whole entry, the tested form may be a part) above
# T3 sequence (Q16531 whole entry partner): as the sequence (Q16531 whole entry partner, the tested form may be a part) above
# T2 sequence (Q13422 whole entry): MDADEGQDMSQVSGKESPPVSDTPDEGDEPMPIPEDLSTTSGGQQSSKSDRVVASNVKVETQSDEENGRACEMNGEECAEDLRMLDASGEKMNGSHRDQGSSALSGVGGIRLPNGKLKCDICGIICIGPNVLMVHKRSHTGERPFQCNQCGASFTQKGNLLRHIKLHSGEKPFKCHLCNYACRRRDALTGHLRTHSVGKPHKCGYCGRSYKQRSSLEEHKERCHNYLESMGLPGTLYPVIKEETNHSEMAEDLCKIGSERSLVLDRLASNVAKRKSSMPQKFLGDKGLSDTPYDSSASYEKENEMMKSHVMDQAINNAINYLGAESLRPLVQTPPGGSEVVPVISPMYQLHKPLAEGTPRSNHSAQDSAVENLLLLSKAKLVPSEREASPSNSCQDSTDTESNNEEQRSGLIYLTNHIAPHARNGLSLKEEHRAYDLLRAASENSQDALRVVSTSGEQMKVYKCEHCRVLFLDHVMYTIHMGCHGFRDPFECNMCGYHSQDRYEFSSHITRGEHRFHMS
# T2 sequence (Q96SW2 whole entry): as the sequence (Q96SW2 whole entry, the tested form may be a part) above
# T2 sequence (Q16531 whole entry partner): as the sequence (Q16531 whole entry partner, the tested form may be a part) above
# T4 sequence (Q96SW2 whole entry, the tested form may be a part): as the sequence (Q96SW2 whole entry, the tested form may be a part) above
# T4 sequence (Q9UKT9 130-189): as the sequence (Q9UKT9 130-189 Q147A) above, with A18Q counted along it
# T4 sequence (Q16531 2-1140, further chain): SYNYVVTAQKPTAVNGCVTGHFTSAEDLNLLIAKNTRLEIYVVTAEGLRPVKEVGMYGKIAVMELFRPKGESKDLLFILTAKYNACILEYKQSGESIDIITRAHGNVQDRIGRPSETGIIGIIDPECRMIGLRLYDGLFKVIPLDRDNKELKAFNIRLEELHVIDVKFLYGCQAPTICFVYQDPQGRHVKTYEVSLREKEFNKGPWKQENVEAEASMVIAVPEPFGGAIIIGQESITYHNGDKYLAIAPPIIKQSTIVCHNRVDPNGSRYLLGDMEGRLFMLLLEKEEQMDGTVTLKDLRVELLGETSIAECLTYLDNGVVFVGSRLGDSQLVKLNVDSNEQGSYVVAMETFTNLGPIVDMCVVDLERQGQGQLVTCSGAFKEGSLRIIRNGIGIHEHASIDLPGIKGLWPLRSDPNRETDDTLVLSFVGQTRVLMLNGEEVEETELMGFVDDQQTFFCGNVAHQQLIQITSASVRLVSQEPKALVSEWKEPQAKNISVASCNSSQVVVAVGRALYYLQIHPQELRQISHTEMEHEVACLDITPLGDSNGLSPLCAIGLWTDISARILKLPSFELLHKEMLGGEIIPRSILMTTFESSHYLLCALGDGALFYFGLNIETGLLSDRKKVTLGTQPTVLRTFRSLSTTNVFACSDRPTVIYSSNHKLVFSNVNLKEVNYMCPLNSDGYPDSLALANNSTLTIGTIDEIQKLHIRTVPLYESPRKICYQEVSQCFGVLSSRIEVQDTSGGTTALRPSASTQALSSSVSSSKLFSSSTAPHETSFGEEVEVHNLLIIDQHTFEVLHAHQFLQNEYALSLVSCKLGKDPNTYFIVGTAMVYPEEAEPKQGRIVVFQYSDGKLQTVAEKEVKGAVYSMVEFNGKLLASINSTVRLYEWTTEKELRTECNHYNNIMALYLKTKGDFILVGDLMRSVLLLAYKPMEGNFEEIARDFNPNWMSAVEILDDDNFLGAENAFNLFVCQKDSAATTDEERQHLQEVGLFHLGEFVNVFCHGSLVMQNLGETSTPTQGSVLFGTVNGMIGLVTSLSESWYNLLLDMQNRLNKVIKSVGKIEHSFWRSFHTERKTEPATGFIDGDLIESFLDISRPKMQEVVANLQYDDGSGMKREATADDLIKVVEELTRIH
smiles,measurement,setting,value
O=C1CCC(N2C(=O)c3ccc(N4CCOCC4)cc3C2=O)C(=O)N1 (centres unmarked) [Compound 22],Dmax,"[1]; 18 h, Fig 2B",76%
same,Log2FC,[2]; [6],-1.0370
same,logFC,[2]; [7],2.037
same,logFC,[2]; [8],0.5955
same,logFC,[2]; [9],-1.619
same,logFC,[2]; [10],-0.4533
same,Log2FC,[2]; degron residues 146/147/149/150/152/153/154/155/167: FFEIGACFL,3.8315
same,Log2FC,[2]; degron residues 146/147/149/150/152/153/154/155/167: FIPVGAPFL,3.937
same,Log2FC,[2]; [11],3.9835 and 3.984
same,Log2FC,[2]; degron residues 146/147/149/150/152/153/154/155/167: FWDVGANFL,3.8903
same,Log2FC,[2]; degron residues 146/147/149/150/152/153/154/155/167: FWDVGAQFL,3.8513
same,Log2FC,[2]; degron residues 146/147/149/150/152/153/154/155/167: FWEIGAAFL,3.8306
same,Log2FC,[2]; degron residues 146/147/149/150/152/153/154/155/167: FWEIGAQFL,3.9298 and 3.93
same,Log2FC,[2]; degron residues 146/147/149/150/152/153/154/155/167: FWEVGAAFL,3.9041
same,Log2FC,[2]; degron residues 146/147/149/150/152/153/154/155/167: FWEVGAHFL,3.9186
same,Log2FC,[2]; degron residues 146/147/149/150/152/153/154/155/167: FWEVGAKFL,3.8571
same,Log2FC,[2]; degron residues 146/147/149/150/152/153/154/155/167: FWEVGANFL,3.8564
same,Log2FC,[2]; degron residues 146/147/149/150/152/153/154/155/167: FWPVGANFL,3.8155
same,Log2FC,[2]; degron residues 146/147/149/150/152/153/154/155/167: FWPVGAQFL,3.9190
same,Log2FC,[2]; degron residues 146/147/149/150/152/153/154/155/167: FYEIGAKFL,3.8391
same,Log2FC,[2]; degron residues 146/147/149/150/152/153/154/155/167: FYEIGATFL,4.0154 and 4.054
same,Log2FC,[2]; [12],3.8457
same,Log2FC,[2]; degron residues 146/147/149/150/152/153/154/155/167: FYEVGANFL,3.8762
same,Log2FC,[2]; degron residues 146/147/149/150/152/153/154/155/167: FYEVGASFL,3.8615
same,Log2FC,[2]; degron residues 146/147/149/150/152/153/154/155/167: FYEVGATFL,4.1392 and 4.14
same,Log2FC,[2]; degron residues 146/147/149/150/152/153/154/155/167: LYEIGFRCL,3.9018
same,degradation of endogenous IKZF1,[3],did not induce degradation of endogenous IKZF1
"Nc1cccc2c1C(=O)N(C1CCC(=O)NC1=O)C2=O (centres unmarked) [Compound 2, pomalidomide]",Dmax,[1],94%
same,degradation of endogenous IKZF3 (Western blot),[4],did cause IKZF3 degradation
same,endogenous IKZF3 levels (Western blot),[4],depleted endogenous IKZF3
same,degradation of WT degron-tagged EGFP (Western blot),[5],induced degradation of EGFP
same,"Scaled value (to 150), replicate 01",Jurkat cells; protein A2M (P01023),7.144
same,"Scaled value (to 150), replicate 02",Jurkat cells; protein A2M (P01023),8.281
same,"Scaled value (to 150), replicate 03",Jurkat cells; protein A2M (P01023),7.913
same,"Scaled value (to 150), replicate 01",Jurkat cells; protein AAAS (Q9NRG9),9.781
same,"Scaled value (to 150), replicate 02",Jurkat cells; protein AAAS (Q9NRG9),9.111
same,"Scaled value (to 150), replicate 03",Jurkat cells; protein AAAS (Q9NRG9),9.328
same,"Scaled value (to 150), replicate 01",Jurkat cells; protein AACS (Q86V21),9.6081
same,"Scaled value (to 150), replicate 02",Jurkat cells; protein AACS (Q86V21),10.2184
same,"Scaled value (to 150), replicate 03",Jurkat cells; protein AACS (Q86V21),9.9438
same,"Scaled value (to 150), replicate 01",Jurkat cells; [13],9.467
same,"Scaled value (to 150), replicate 02",Jurkat cells; [13],10.1133
same,"Scaled value (to 150), replicate 03",Jurkat cells; [13],9.458
same,proteins significantly degraded (quantitative proteomics),MM.1S cells,"IKZF1, IKZF3, and at least 6 other proteins were significantly degraded"
O=C1CCC(N2C(=O)c3cccc(NC(c4ccccc4)c4ccccc4)c3C2=O)C(=O)N1 (centres unmarked) [Compound 33],Dmax,"[1]; 18 h, Fig 2B",97%
same,Log2FC,[2]; [6],-1.2556
same,logFC,[2]; [7],-0.4744
same,logFC,[2]; [8],-0.1939
same,logFC,[2]; [9],-2.168
same,logFC,[2]; [10],-2.426
same,Log2FC,[2]; degron residues 146/147/149/150/152/153/154/155/167: FGPVGAFFL,3.1139
same,Log2FC,[2]; degron residues 146/147/149/150/152/153/154/155/167: FMEIGAAFL,3.1949
same,Log2FC,[2]; degron residues 146/147/149/150/152/153/154/155/167: FMEIGAPFL,3.1328
same,Log2FC,[2]; degron residues 146/147/149/150/152/153/154/155/167: FMEVGAPFL,3.1157
same,Log2FC,[2]; degron residues 146/147/149/150/152/153/154/155/167: FMNIGAPFL,3.2358 and 3.236
same,Log2FC,[2]; degron residues 146/147/149/150/152/153/154/155/167: FMPIGAPFL,3.0896
same,Log2FC,[2]; degron residues 146/147/149/150/152/153/154/155/167: FMPVGAAFL,3.0783
same,Log2FC,[2]; degron residues 146/147/149/150/152/153/154/155/167: FMPVGAPFL,3.0869
same,Log2FC,[2]; degron residues 146/147/149/150/152/153/154/155/167: FRDIGAPFL,3.3226 and 3.323
same,Log2FC,[2]; degron residues 146/147/149/150/152/153/154/155/167: FRDVGAPFL,3.2095
same,Log2FC,[2]; [11],3.3123
same,Log2FC,[2]; degron residues 146/147/149/150/152/153/154/155/167: FREVGAPFL,3.3928 and 3.393
same,Log2FC,[2]; degron residues 146/147/149/150/152/153/154/155/167: FRPVGAPFL,3.2684 and 3.268
same,Log2FC,[2]; degron residues 146/147/149/150/152/153/154/155/167: FYEIGAQFL,3.1346
same,Log2FC,[2]; [12],3.1049
same,Log2FC,[2]; degron residues 146/147/149/150/152/153/154/155/167: LCPIGFTCL,3.1410
same,Log2FC,[2]; degron residues 146/147/149/150/152/153/154/155/167: LCPIGFYCL,3.1590
same,Log2FC,[2]; degron residues 146/147/149/150/152/153/154/155/167: LYEIGFSCL,3.0997
same,Log2FC,[2]; degron residues 146/147/149/150/152/153/154/155/167: LYEIGFTCL,3.1905
same,Log2FC,[2]; degron residues 146/147/149/150/152/153/154/155/167: LYPIGFSCL,3.0902
same,degradation of endogenous IKZF1,[3],modest degradation of IKZF1

# Reference: paper PMC12645437, “Orthogonal IMiD-Degron Pairs Induce Selective Protein Degradation in Cells” (ACS Chemical Biology, 2025)
